Here are results for 14 molecules from US20130158112A1, “COMPOSITIONS AND METHODS FOR INHIBITING BETA AMYLOID SECRETION” (priority 2011, published 2013).

SMILES strings stand for the structures. Read-outs that look alike come from different tables or passages of the source. Bounds are passed on as bounds.

Data set [1] relates to Aβ secretion. Kind of data set: Secreted total Aβ ELISA in conditioned media of H4βAPP695 wt cells. In kind it is cell-based, human. The following applies: for inhibition at 10 µM / inhibition at 30 µM: Homo sapiens, 24 h, H4βAPP695 wt cells; for inhibition at 10 µM: read-out: Total Aβ (% decrease) 10 μM Mean; for inhibition at 30 µM: read-out: Total Aβ (% decrease) 30 μM Mean; for Aβ secretion inhibiting activity (structure activity summary): in words. The procedure: (§1) H4βAPP695 wt cells, a human […] cell line stably transfected with a wtβAPP695 expression vector construct under the control of a CMV promoter (kindly provided by Dr. Chris Eckman from Mayo Clinic, Florida) were cultured as previously described. Twenty-four hours before drug treatment, the media was replaced with serum-free media. Cells were then incubated with drugs (dissolved in DMSO) or vehicle for 24 h for collection of conditioned media and cell lysates. For the PKC inhibitors experiment, three inhibitors were treated 30 min prior to drug challenge. Primary cortical neurons were prepared from embryonic day 18 APP and presenilin 1 (APPswe, PSEN1dE9) transgenic mice on the C57BL/6 genetic background (Jackson Laboratories, strain no. 5864) as previously described. THLE-3 human hepatoma cells (from ATCC) were plated in 24-well plates that were precoated with 10 μg/mL bovine serum albumin, 10 μg/mL fibronectin, and 30 μg/mL bovine type I collagen. The cells were grown in BEGM media (Clonetics) until confluent and treated with drugs at 20 μM for 24 h. This conditioned media was harvested, diluted 1:1 in serum-free medium, and incubated with H4βAPP695 wt cells for 24 h prior to analysis of secreted Aβ, which was compared to the effect of 10 μM drug treatments without prior incubation with the THLE-3 cells. Caco-2 cells (ATCC) were plated in 12-well plates with Transwell inserts (Costar) at 70000 cells per well and grown for 21 days. The media volume of the apical and basal chambers was 0.5 and 1.5 mL, respectively. Transepithelial resistance was measured in each well and found to be >160 Ω/cm^2. Drugs at 40 μM and 20 μg/mL of lucifer yellow were added in serum-free medium to the apical chamber. Four hours later, the basal chamber media was harvested and used to measure lucifer yellow fluorescence to confirm monolayer integrity as well as for treatment of H4βAPP695 wt cells for 24 h prior to analysis of secreted Aβ, which was compared to the effect of direct addition of 10 μM of the corresponding drug.
A general note: ELISA stands for enzyme-linked immunosorbent assay.

Data set [2] deals with H4βAPP695 wt cells. Kind of data set: Cytotoxicity by total cell protein content (BCA) of H4βAPP695 wt cells. Particulars: cytotoxicity.
The test system of data set [3] is THLE-3 human hepatoma cells. Nature of the data set: Drug activity persistence after incubation with THLE-3 hepatoma cells. The following applies: for inhibition at 10 µM: Homo sapiens, THLE3, 24 h. The format is in vitro ADME. As to the method: as §1
To screen for resistance to metabolism, 1 and eight noncytotoxic analogues with >50% Aβ reducing activity (compounds 27, 29, 48, 52, 53, 65, 73, and 76) were incubated at 20 μM for 24 h with or without THLE-3 human hepatoma cells.

Molecule `CCOC(=O)c1cccc(CSCCNC(=O)c2c(Cl)cccc2Cl)c1` [Compound 43, 3-[2-(2,6-Dichloro-benzoylamino)-ethylsulfanylmethyl]-benzoic Acid Ethyl Ester] returned a melting point of 43 to 45 °C. For the same molecule, in data set [1], the inhibition at 10 µM amounted to 3%, the inhibition at 30 µM amounted to 10.1% and the “Aβ secretion inhibiting activity (structure activity summary)” value (“Aβ secretion inhibiting activity” for short) is “did not yield good activity”. For the same molecule, in data set [2], the “Cell protein (% decrease) 10 μM Mean” value was 5.8% and the “Cell protein (% decrease) 30 μM Mean” value was found to be 5.4%.
In the case of `O=C(NCCSCc1cccc(O)c1)c1c(O)cccc1O` [Compound 35, 2,6-Dihydroxy-N-[2-(3-hydroxy-benzylsulfanyl)-ethyl]-benzamide], the melting point is 61 to 62 °C. Moreover, in data set [1], the inhibition at 10 µM was -22.5%, the inhibition at 30 µM is -25.2% and the “Aβ secretion inhibiting activity” value is listed as “not well tolerated”. In data set [2], the “Cell protein (% decrease) 10 μM Mean” value was determined as 10.5% and the “Cell protein (% decrease) 30 μM Mean” value worked out at 14.3%.
Regarding `O=C(NCCSCc1cccc(O)c1)c1c(Cl)cccc1Cl` [Compound 29, 2,6-dichloro-N-[2-(3-hydroxy-benzylsulfanyl)-ethyl]-benzamide], in data set [1], the inhibition at 10 µM is greater than 50%, the inhibition at 30 µM was 67.7% and the “Aβ secretion inhibiting activity” value is “good activity”. Further, in data set [3] (10 μM on H4 cells, without preincubation with hepatoma cells, read-out: hepatoma incubation No total Aβ (% decrease)), the inhibition at 10 µM is 56.4%. Besides, the inhibition at 10 µM in data set [3] (20 μM preincubated 24 h with THLE-3 hepatoma cells, diluted to 10 μM on H4 cells, read-out: hepatoma incubation Yes total Aβ (% decrease)) was determined as 23.1%. For the same molecule, in data set [3] (after 24 h incubation with hepatoma cells), the “% remaining Activity” value worked out at 41%. Further, in data set [2], the “Cell protein (% decrease) 10 μM Mean” value turned out to be 6.3% and the “Cell protein (% decrease) 30 μM Mean” value came out at 6.6%.
Molecule `O=C(NCCSCc1cccc(F)c1)c1c(Cl)cccc1Cl` [Compound 47, 2,6-Dichloro-N-[2-(3-fluoro-benzylsulfanyl)-ethyl]-benzamide] displayed a melting point of 70 to 72 °C. In data set [1], the inhibition at 10 µM came to 10.2%, the inhibition at 30 µM turned out to be 36.1% and the “Aβ secretion inhibiting activity” value is on record as “did not yield good activity”. In addition, in data set [2], the “Cell protein (% decrease) 10 μM Mean” value came out at 2.6% and the “Cell protein (% decrease) 30 μM Mean” value worked out at 3.7%.
The molecule `O=C(NCCSCc1cccc(Cl)c1)c1c(F)cccc1F` [Compound 67, N-[2-(3-Chloro-benzylsulfanyl)-ethyl]-2,6-difluoro-benzamide] registered a melting point of 41 to 43 °C. Besides, in data set [1], the inhibition at 10 µM was 4.9%, the inhibition at 30 µM was determined as 21.6% and the “Aβ secretion inhibiting activity” value is “not well tolerated”. Further, in data set [2], the “Cell protein (% decrease) 10 μM Mean” value is 5.1% and the “Cell protein (% decrease) 30 μM Mean” value came to 8.1%.
For the molecule `O=C(NCCSCc1ccc(Cl)cc1)c1c(Cl)cccc1Cl` [Compound 77, 2,6-Dichloro-N-[2-(4-chloro-benzylsulfanyl)-ethyl]-benzamide], the melting point was in the range of 104 to 106 °C. Further, in data set [1], the inhibition at 10 µM stood at 21.8%, the inhibition at 30 µM came to 36.5% and the “Aβ secretion inhibiting activity” value was “loss of activity”. Moreover, in data set [2], the “Cell protein (% decrease) 10 μM Mean” value is −6.4% and the “Cell protein (% decrease) 30 μM Mean” value is given as 3%.
With `O=C(NCCSCc1cccc(C(F)(F)F)c1)c1c(Cl)cccc1Cl` [Compound 50, 2,6-Dichloro-N-[2-(3-trifluoromethyl-benzylsulfanyl)-ethyl]-benzamide], the melting point was in the range of 54 to 55 °C. Moreover, in data set [1], the inhibition at 30 µM was determined as 93.4% and the “Aβ secretion inhibiting activity” value is on record as “good activity”. For the same molecule, in data set [2], the “Cell protein (% decrease) 10 μM Mean” value is 19%.
On to `COc1cccc(CSCCNC(=O)c2c(OC)cccc2OC)c1` [Compound 34, 2,6-Dimethoxy-N-[2-(3-methoxy-benzylsulfanyl)-ethyl]-benzamide], for which the melting point was 41 to 43 °C. In data set [1], the inhibition at 10 µM was 6.2%, the inhibition at 30 µM was -0.6% and the “Aβ secretion inhibiting activity” value is “not well tolerated”. Also, in data set [2], the “Cell protein (% decrease) 10 μM Mean” value was 0.5% and the “Cell protein (% decrease) 30 μM Mean” value is recorded as 3.9%.
On to `O=C(NCCSCc1cccc(Br)c1)c1c(Br)cccc1Br` [Compound 55, 2,6-Dibromo-N-[2-(3-bromo-benzylsulfanyl)-ethyl]-benzamide], for which the melting point was 70 to 72 °C. Moreover, in data set [1], the inhibition at 30 µM is 87.3% and the “Aβ secretion inhibiting activity” value is listed as “maintained activity”. Besides, in data set [2], the “Cell protein (% decrease) 10 μM Mean” value is reported as 9.8% and the “Cell protein (% decrease) 30 μM Mean” value turned out to be 23.9%.
Molecule `O=C(NCCSCc1cccc(Cl)c1)c1c(C(F)(F)F)cccc1C(F)(F)F` [Compound 74, N-[2-(3-Chloro-benzylsulfanyl)-ethyl]-2,6-bis-trifluoromethyl-benzamide] gave a melting point of 93 to 94 °C. In data set [1], the inhibition at 10 µM is 6.2%, the inhibition at 30 µM came out at 13.5% and the “Aβ secretion inhibiting activity” value was “not well tolerated”. Besides, in data set [2], the “Cell protein (% decrease) 10 μM Mean” value was −4.2% and the “Cell protein (% decrease) 30 μM Mean” value is given as −0.4%.
Take `COc1cccc(OC)c1C(=O)NCCSCc1cccc(Cl)c1` [Compound 36, N-[2-(3-Chloro-benzylsulfanyl)-ethyl]-2,6-dimethoxy-benzamide]: the melting point lay within 90 to 91 °C. Besides, in data set [1], the inhibition at 10 µM is -13.1%, the inhibition at 30 µM stood at 11.2% and the “Aβ secretion inhibiting activity” value was “not well tolerated”. In data set [2], the “Cell protein (% decrease) 10 μM Mean” value was 7.1% and the “Cell protein (% decrease) 30 μM Mean” value is on record as −0.6%.
`COc1cccc(CSCCNC(=O)c2c(Cl)cccc2OC)c1` [Compound 42, 2-Chloro-6-methoxy-N-[2-(3-methoxy-benzylsulfanyl)-ethyl]-benzamide] returned a melting point of 58 to 59 °C. Besides, in data set [1], the inhibition at 10 µM was -2.9% and the inhibition at 30 µM was -4.7%. For the same molecule, in data set [2], the “Cell protein (% decrease) 10 μM Mean” value is listed as 1.9% and the “Cell protein (% decrease) 30 μM Mean” value is on record as 9.3%.
For `O=C(NCCSCc1cc(O)cc(O)c1)c1c(Cl)cccc1Cl` [Compound 59, 2,6-Dichloro-N-[2-(3,5-dihydroxy-benzylsulfanyl)-ethyl]-benzamide], the melting point lay within 55 to 57 °C. Besides, in data set [1], the inhibition at 10 µM amounted to 3.1%, the inhibition at 30 µM worked out at 17.2% and the “Aβ secretion inhibiting activity” value is on record as “lost activity”. In addition, in data set [2], the “Cell protein (% decrease) 10 μM Mean” value is listed as −0.4% and the “Cell protein (% decrease) 30 μM Mean” value is given as −0.7%.
`COc1cc(CSCCNC(=O)c2c(Cl)cccc2Cl)cc(OC)c1` [Compound 60, 2,6-Dichloro-N-[2-(3,5-dimethoxy-benzylsulfanyl)-ethyl]-benzamide] gave a melting point of 46 to 47 °C. Also, in data set [1], the inhibition at 10 µM was determined as 47.9%, the inhibition at 30 µM worked out at 80.4% and the “Aβ secretion inhibiting activity” value is “could be tolerated”. Besides, in data set [2], the “Cell protein (% decrease) 10 μM Mean” value was found to be 2% and the “Cell protein (% decrease) 30 μM Mean” value is on record as −8.7%.

By melting point is commonly meant the temperature of the solid-liquid transition.
